These results are taken from patent US10045977B2, “Use of nalmefene in non-alcoholic steatohepatitis” (TAIWANJ PHARMACEUTICALS CO., LTD., priority 2016, dated 2018).

In data set [1] the test system is p38 MAP kinase phosphorylation in Kupffer cells. The data set is described as follows: LPS-induced p38 MAP kinase phosphorylation in Kupffer cells. The data set is classed as cell-based, rat. The conditions noted are these: Compound A 100 ng/mL; 5 and 20 min; n=3 replicates; FIG. 2.
Data set [2] deals with MCD diet fatty liver rats given E coli endotoxin (LPS). The data set is described as follows: Methionine-choline-deficient (MCD) diet rat model with LPS second hit. The data set is classed as in vivo, Sprague Dawley rats. The following applies: for Prevention of liver injury following LPS in fatty liver rats: 0-30 mg/kg oral, FIG. 5; for Serum ALT change, in words: 6 h after LPS, p<0.05. How it is done:
20 Sprague Dawley rats were administered with Compound A by oral gavage once daily at 0, 5, 10, 20 or 30 mg/kg (4 rats/group) for 4 weeks. All animals were fed a methionine/choline deficient (MCD) diet (from Dyets, Inc) five times per week during the feeding period in order to produce a diet-induced fatty liver. Rats were weighed daily as well as food intake. At the end of four weeks, the rats were administered 2 mg/kg E coli endotoxin (LPS) IP and 6 hours later the rats were euthanized and liver tissue and serum collected. Liver and was harvested at time of death as was blood. Histology samples were also taken.

Data set [3] has the same test system. Described as above. The data set is classed as in vivo, Sprague Dawley rats. The following applies: 6 h after LPS 2 mg/kg IP, n=3, not statistically significant.
Data set [4] relates to Kupffer cells. The data set is described as follows: LPS-stimulated release of TNF-α in Kupffer cells. The data set is classed as cell-based, rat. The conditions noted are these: E. coli LPS; supernatant TNF-α at 2, 4, 6 hours; FIG. 1. Here is the method: Kupffer cells were isolated by enzymatic digestion and purified by centrifugal elutriation from normal rats and cultured overnight. They were then stimulated with E. coli LPS either without or with Compound A added to the medium. TNF-α content in the supernatant was measured at 2, 4, and 6 hours.

The subject of data set [5] is STAM model of NASH. The data set is described as follows: In vivo efficacy study in STAM model of NASH. Also on record: Steatosis score / Inflammation score / Ballooning score: scale not given here. The following applies: for NAS (NAFLD Activity Score) compared with the Vehicle group, in words: HE-stained liver sections; for NAS (NAFLD Activity Score) compared with the Vehicle group, in words / Fibrosis area (Sirius red-positive area) compared with the Vehicle group: week 9; for Fibrosis area (Sirius red-positive area) compared with the Vehicle group: Sirius red-stained liver sections; for Ballooning score / Inflammation score / NAS (NAFLD activity score) / Steatosis score: mean ± SEM, twice daily from 6 to 9 weeks of age, Telmisartan 10 mg/kg oral, nalmefene/naltrexone 5 mg/kg s.c. An excerpt: FIG. 3 sets out representative photomicrographs of HE-stained sections of livers from STAM model of NASH. Sections were cut from paraffin blocks of liver tissue prefixed in Bouin's solution and stained with Lillie-Mayer's Hematoxylin and eosin solution.
To visualize collagen deposition, Bouin's-fixed left lateral liver sections were stained using picro-Sirius red solution (Waldeck, Germany). b) For quantitative analysis of fibrosis area, bright field images of Sirius red-stained sections were captured around the central vein using a digital camera (DFC295; Leica, Germany) at 200-fold magnification, and the positive areas in 5 fields/section were measured using ImageJ software (National Institute of Health, USA). Individual values and mean±SEM for each treatment group are presented.
General Procedure NASH was induced in male C57BL/6 mice by a single subcutaneous injection of 200 μg streptozotocin solution 2 days after birth and feeding with high fat diet (HFD, 57 kcal % fat, Cat# HFD32, CLEA Japan, Japan) after 4 weeks of age. The animals were divided into groups of six each and were orally administered vehicle (1% Tween80) at 10 mL/kg or Telmisartan at 10 mg/kg twice daily from 6 to 9 weeks of age. […] The animals were sacrificed at week 9.

With `C=C1CC[C@@]2(O)C3Cc4ccc(O)c5c4C2(CCN3CC2CC2)C1O5` (stereo in doubt) [Compound A, 17-cyclopropylmethyl-4,5α-epoxy-6-methylenemorphinan-3,14-diol], in data set [1], the “LPS-induced p38 MAP kinase phosphorylation” value is on record as “reduced”. In addition, the “Prevention of liver injury following LPS in fatty liver rats” value in data set [2] is “dose-dependent prevention of liver injury”. In addition, the “Prevention of liver injury following LPS in fatty liver rats” value in data set [2] (listed as Nalmefene) is reported as “demonstrated efficacy in preventing inflammatory liver damage”. Also, in data set [2] (20 mg/kg oral once daily 4 weeks), the “Serum ALT change, in words” value is recorded as “further decrease that was significant”. Moreover, the “Serum ALT” value in data set [2] (30 mg/kg oral once daily 4 weeks, 6 h after LPS 2 mg/kg IP) is 94.9+/−5.5 U/L. For the same compound, the “Serum ALT change, in words” value in data set [2] (30 mg/kg oral once daily 4 weeks) is recorded as “further decrease that was significant”. For the same compound, the Liver histopathology finding result in data set [2] (MCD and Compound A treated rats, FIG. 7) is on record as “slight periportal chronic inflammation (mild nonspecific chronic hepatitis)”. In addition, in data set [2] (MCD+LPS+Compound A treated rats, FIG. 7), the Liver histopathology finding result is “slight periportal chronic inflammation”. The “Hepatic fat accumulation (histopathology)” value in data set [2] (treated rats compared to control, FIG. 7) was “prevents hepatic fat accumulation”. Also, the “Decrease of elevated serum ALT levels” value in data set [3] (5 mg/kg oral once daily 4 weeks) is around 50%. Besides, the “Decrease of elevated serum ALT levels” value in data set [3] (10 mg/kg oral once daily 4 weeks) was around 50%. Besides, the “LPS/time-dependent increase in TNF-α released by Kupffer cells” value in data set [4] is listed as “inhibited”. In addition, the “Mortality during the treatment period” value in data set [5] (5 mg/kg s.c. twice daily, before week 9) is “one out of six mice was found dead”. In addition, in data set [5], the “NAS (NAFLD Activity Score) compared with the Vehicle group, in words” value (“NAS … compared with the Vehicle group, in words” for short) was “tended to show decrease”; the “Fibrosis area (Sirius red-positive area) compared with the Vehicle group” value (from here on “Fibrosis area … compared with the Vehicle group”) is listed as “tended to shown decrease”; the Ballooning score was 0.40 ± 0.24; the Inflammation score came to 1.80 ± 0.20. In addition, in data set [5], the “NAS (NAFLD activity score)” value is 3.00 ± 0.63 and the Steatosis score came out at 0.80 ± 0.49.

As for `O=C1CC[C@@]2(O)C3Cc4ccc(O)c5c4C2(CCN3CC2CC2)C1O5` (stereo in doubt) [Compound B, 17-cyclopropylmethyl-4,5α-epoxy-6-oxomorphinan-3,14-diol], in data set [5], the “NAS … compared with the Vehicle group, in words” value is “significant decreases”; the “Fibrosis area … compared with the Vehicle group” value is listed as “significantly decreased”; the Ballooning score is reported as 0.00 ± 0.00; the Inflammation score was 1.67 ± 0.33. Moreover, in data set [5], the “NAS (NAFLD activity score)” value is 2.17 ± 0.40 and the Steatosis score is given as 0.50 ± 0.22.

For `CCCc1nc2c(C)cc(-c3nc4ccccc4n3C)cc2n1Cc1ccc(-c2ccccc2C(=O)O)cc1` [Telmisartan], the “Mean body weight during the treatment period” value in data set [5] (6 to 9 weeks of age) was “gradually decreased”. In data set [5], the “NAS … compared with the Vehicle group, in words” value is “significant decreases”; the “Fibrosis area … compared with the Vehicle group” value was “significantly decreased”; the Ballooning score is recorded as 1.00 ± 0.26; the Inflammation score came to 1.17 ± 0.48. Also, in data set [5], the “NAS (NAFLD activity score)” value is given as 2.67 ± 0.56 and the Steatosis score is recorded as 0.50 ± 0.22.
